Reference: US12281084B2, “Acetyl-CoA synthetase 2 (ACSS2) inhibitors and methods using same” (The Wistar Institute, priority 2019, dated 2025)

Tested on: BT474 tumors
Assay: Targeted metabolomic analysis of 99 metabolites in BT474 tumors
Type: in vivo, mouse
Conditions: VY-3-135 vs vehicle
Protocol: All metabolomic experiments were performed in serum-like modified Eagle's medium (SMEM). SMEM contains 54 different nutrients that are found in the bloodstream at concentrations that are physiologically relevant to humans. SMEM was supplemented with 10% or 1% fetal bovine serum (FBS; Life Technologies). Cells were grown in normoxia (atmospheric oxygen) or hypoxia (1% oxygen) while being incubated in uniformly labeled ^13C2-acetate (0.100 mM; Cambridge Isotope Laboratories). Lengths of incubation are described in the figure legends. For extraction of metabolites from cultured cells, SMEM medium was aspirated and cells were washed once in ice-cold PBS. Metabolites were extracted by adding a solution of LC-MS grade methanol/acetonitrile/water (5:3:2) to the well. Plates were incubated at 4° C. for 5 minutes on a rocker and then the extraction solution was collected. The metabolite extract was cleared by centrifugation at 15,000×g for 10 minutes at 4° C. Supernatants were transferred to LC-MS silanized glass vials with PTFE caps and either run immediately on the LC-MS or stored at −80° C. For extraction of metabolites from tumors, tumor bearing mice were sacrificed by exsanguination under anesthesia and tumors were immediately excised and flash frozen in liquid nitrogen. Frozen tumors were weighed and then extracted at 40 mg/mL in extraction solution using a tissue homogenizer (Bullet Blender) and stainless steel beads. The metabolite extract was cleared twice by centrifugation at 15,000×g for 10 minutes at 4° C. Supernatants were transferred to LC-MS silanized glass vials with PTFE caps and either run immediately on the LC-MS or stored at −80° C.
LC-MS analysis was performed on a Q Exactive Hybrid Quadrupole-Orbitrap HF-X MS (ThermoFisher Scientific) equipped with a HESI II probe and coupled to a Vanquish Horizon UHPLC system (ThermoFisher Scientific). 0.002 ml of sample is injected and separated by HILIC chromatography on a ZIC-pHILIC 2.1-mm. Samples are separated by ammonium carbonate, 0.1% ammonium hydroxide, pH 9.2, and mobile phase B is acetonitrile. […] The relevant MS parameters were as listed: sheath gas, 40; auxiliary gas, 10; sweep gas, 1; auxiliary gas heater temperature, 350° C.; spray voltage, 3.5 kV for the positive mode and 3.2 kV for the negative mode. Capillary temperature was set at 325° C., and funnel RF level at 40. Samples were analyzed in full MS scan with polarity switching at scan range 65 to 975 m/z; 120,000 resolution; automated gain control (AGC) target of 1E6; and maximum injection time (max IT) of 100 milliseconds. Identification and quantitation of metabolites was performed using an annotated compound library and TraceFinder 4.1 software. The “M+X” nomenclature refers to the isotopolog for that given metabolite. Isotopologs are chemically identical metabolites that differ only in their number of carbon-13 atoms. For instance, “M+2 citrate” means that two of the six carbons in citrate are carbon-13 while the other four are carbon-12. “M+4 citrate” means that four of the six carbons in citrate are carbon-13 while the other two are carbon-12.
A targeted metabolomic analysis of 99 metabolites in vehicle versus VY-3-135 treated BT474 tumors was performed (FIG. 6E and Table 2).

## CCn1c(C(O)(c2ccccc2)c2ccccc2)nc2ccc(C(=O)NC[C@@H](C)O)cc21 [VY-3-135, (R)-1-ethyl-2-(hydroxydiphenylmethyl)-N-(2-hydroxypropyl)-1H-benzo[d]imidazole-6-carboxamide]
  Log2 FC (VY/Veh) 2-aminobutyrate: −0.5166
  Log2 FC (VY/Veh) 3 -hydroxybutryate: −1.001
  Log2 FC (VY/Veh) 3-phosphoglycerate: −0.5802
  Log2 FC (VY/Veh) 4-hydroxyproline: −0.725
  Log2 FC (VY/Veh) ADP: −1.452
  Log2 FC (VY/Veh) AMP: −0.6555
  Log2 FC (VY/Veh) ATP: −2.026
  Log2 FC (VY/Veh) CDP: −1.642
  Log2 FC (VY/Veh) CDP-choline: −2.603
  Log2 FC (VY/Veh) CDP-ethanolamine: −1.552
  Log2 FC (VY/Veh) CMP: −0.8199
  Log2 FC (VY/Veh) DHAP/G3P: −2.029
  Log2 FC (VY/Veh) FBP: −1.71
  Log2 FC (VY/Veh) GDP: −2.599
  Log2 FC (VY/Veh) GMP: −1.275
  Log2 FC (VY/Veh) GSH: −0.6903
  Log2 FC (VY/Veh) GSSG: 0.2094
  Log2 FC (VY/Veh) IMP: 1.067
  Log2 FC (VY/Veh) PEP: −1.207
  Log2 FC (VY/Veh) SAH: −0.3532
  Log2 FC (VY/Veh) SAM: −1.16
  Log2 FC (VY/Veh) UDP: −1.495
  Log2 FC (VY/Veh) UDP-GlcNAc: −0.8007
  Log2 FC (VY/Veh) UMP: −0.4024
  Log2 FC (VY/Veh) UTP: −2.182
  Log2 FC (VY/Veh) acetyl-aspartate: −0.7575
  Log2 FC (VY/Veh) acetyl-carnitine: −0.5449
  Log2 FC (VY/Veh) acetyl-glycine: −1.037
  Log2 FC (VY/Veh) acetyl-putrescine: −1.423
  Log2 FC (VY/Veh) adenine: 1.003
  Log2 FC (VY/Veh) adenosine: 1.879
  Log2 FC (VY/Veh) aketoglutarate: 0.9192
  Log2 FC (VY/Veh) alanine: −0.6739
  Log2 FC (VY/Veh) arginine: 0.7229
  Log2 FC (VY/Veh) arginosuccinate: −0.1741
  Log2 FC (VY/Veh) asparagine: −1.225
  Log2 FC (VY/Veh) aspartate: 0.009996
  Log2 FC (VY/Veh) betaine: −0.4739
  Log2 FC (VY/Veh) carbamoyl-asp: −0.787
  Log2 FC (VY/Veh) carnitine: −0.6768
  Log2 FC (VY/Veh) choline: −0.5304
  Log2 FC (VY/Veh) cis-aconitate: −0.2247
  Log2 FC (VY/Veh) citrate: −0.1134
  Log2 FC (VY/Veh) citrulline: −0.3937
  Log2 FC (VY/Veh) creatine: −0.5321
  Log2 FC (VY/Veh) creatinine: 0.01869
  Log2 FC (VY/Veh) cystathionine: −1.232
  Log2 FC (VY/Veh) cystine: −0.4837
  Log2 FC (VY/Veh) cytidine: 1.244
  Log2 FC (VY/Veh) cytosine: 1.232
  Log2 FC (VY/Veh) ethanolamine-P: −1.364
  Log2 FC (VY/Veh) glucose-6-P: 0.03691
  Log2 FC (VY/Veh) glucose/hexose: 0.9908
  Log2 FC (VY/Veh) glutamate: −0.5429
  Log2 FC (VY/Veh) glutamine: 0.09203
  Log2 FC (VY/Veh) glycerol: 0.1079
  Log2 FC (VY/Veh) glycerol-3-P: −0.8487
  Log2 FC (VY/Veh) glycine: −0.4034
  Log2 FC (VY/Veh) guanine: 1.969
  Log2 FC (VY/Veh) guanosine: 3.356
  Log2 FC (VY/Veh) histidine: −0.4238
  Log2 FC (VY/Veh) hypoxanthine: 0.3548
  Log2 FC (VY/Veh) isoleucine: −1.483
  Log2 FC (VY/Veh) lactate: −1.761
  Log2 FC (VY/Veh) leucine: −0.6361
  Log2 FC (VY/Veh) lysine: −1.026
  Log2 FC (VY/Veh) malate: 0.0239
  Log2 FC (VY/Veh) malonate: 0.1254
  Log2 FC (VY/Veh) methionine: −1.631
  Log2 FC (VY/Veh) methyl-lysine: −1.396
  Log2 FC (VY/Veh) myo-inositol: −0.4307
  Log2 FC (VY/Veh) niacin/nicotinate: 1.977
  Log2 FC (VY/Veh) nicotinamide: 0.1254
  Log2 FC (VY/Veh) nicotinamide N-oxide: 4.808
  Log2 FC (VY/Veh) ornithine: −0.7516
  Log2 FC (VY/Veh) pantothenate: −0.6181
  Log2 FC (VY/Veh) phenylalanine: −0.5091
  Log2 FC (VY/Veh) phosphocholine: −0.7924
  Log2 FC (VY/Veh) phosphocreatine: 0.324
  Log2 FC (VY/Veh) proline: −0.4024
  Log2 FC (VY/Veh) pyridoxine: 0.3808
  Log2 FC (VY/Veh) pyruvate: −0.8037
  Log2 FC (VY/Veh) riboflavin: −2.12
  Log2 FC (VY/Veh) ribose: −0.5026
  Log2 FC (VY/Veh) ribose-P: 0.2634
  Log2 FC (VY/Veh) sedoheptulose-P: −0.2584
  Log2 FC (VY/Veh) serine: 1.09
  Log2 FC (VY/Veh) succinate: −1.793
  Log2 FC (VY/Veh) succinyladenosine: −0.8738
  Log2 FC (VY/Veh) succinylcysteine: −0.9561
  Log2 FC (VY/Veh) succinylglutathione: −1.861
  Log2 FC (VY/Veh) taurine: 0.1159
  Log2 FC (VY/Veh) threonine: −0.9186
  Log2 FC (VY/Veh) thymidine: 2.328
  Log2 FC (VY/Veh) tryptophan: −0.2045
  Log2 FC (VY/Veh) tyrosine: −0.8432
  Log2 FC (VY/Veh) urate: −0.6288
  Log2 FC (VY/Veh) valine: −0.5942
  Log2 FC (VY/Veh) xanthine: −0.8286
